Measured values published in patent publication US9284321B2, “Piperazino[1,2-a]indol-1-ones and [1,4]diazepino[1,2-a]indol-1-one” (Hoffmann-La Roche Inc., priority 2012, dated 2016).

How the values were obtained:
[1] = tested on: human embryonic stem cell derived neural stem cells (NSCs); experiment: Neural Stem Cell Proliferation Assay (neurogenesis assay, ATP levels by CellTiterGlo); assay type: cell-based; conditions: 96 h, compound concentration at which 150% activity of control (100%) is reached, NSC proliferation by ATP level after 4 days incubation, dose response 8 μM to 8 nM
Protocol: Neurogenic properties of small molecules are determined based on the proliferation of human embryonic stem cell derived neural stem cells (NSCs) which were derived via a dual smad inhibition as previously described (Chambers, S. M., et al., Highly efficient neural conversion of human ES and iPS cells by dual inhibition of SMAD signaling, Nature biotechnology, 2009. 27(3): p. 275-80.)
Compounds respond is measured by the increase in cells based on ATP levels
(Promega:CellTiterGlo®) after an incubation period of 4 days.
NSCs are thawed and expanded over 3 passages. On the 14th day, NSCs are seeded in Polyornithin/Laminin coated 384 well plates at a cell density of 21′000 cells/cm^2 in a media volume of 38 μl.
4 hours after cell seeding, compound solutions are added at a volume of 2 μl. Stock solutions of the compounds (water, 5% DMSO) are diluted to obtain a dose response (11 points, dilution factor is 2), ranging from 8 μM to 8 nM. Controls are run to consistently determine the neurogenic properties of the cells:
Negative (neutral) control is cell culture Media (final DMSO concentration: 0.25%).
• 1. cell culture Media+100 ng/ml FGF2 (final DMSO concentration: 0.1%) • 2. cell culture Media+20 ng/ml EGF (final DMSO concentration: 0.1%) • 3. cell culture Media+100 ng/ml Wnt3a (final DMSO concentration: 0.1%)
After 4 days incubation at 37° C., 5% CO2, the amount of ATP per well is quantified. The ATP concentration is proportional to the cell number. ATP is quantified by using the Promega CellTiterGlo® kit. The CellTiterGlo® reagents contain a cell lysis buffer, a thermo stable luciferase (UltraGlo™ recombinant luciferase), magnesium and luciferin. Luciferin reacts with ATP producing oxyluciferin, AMP and light. The luminescence signal is proportional to the ATP content.
The value of negative (neutral) control is determined for each assay plate by taking the average of 16 negative control wells. The neurogenic compound response is calculated for each compound as (compound/Negative Control)*100.
The values of EC150 from the dose response curve are determined for each test compound. The EC150 is the compound concentration at which 150% activity of control (100%) is reached.

Structure (SMILES) | melting point [°C] | EC (150% of control) [1] [µM]
COc1ccc(-c2cc(F)cc3cc4n(c23)CCNC4=O)cc1 [Example 19, 8-Fluoro-6-(4-methoxy-phenyl)-3,4-dihydro-2H-pyrazino[1,2-a]indol-1-one] | 274.5 | 0.007
O=C1NCCCn2c1cc1cc(F)cc(-c3ccncc3)c12 [Example 20, 9-Fluoro-7-pyridin-4-yl-2,3,4,5-tetrahydro-[1,4]diazepino[1,2-a]indol-1-one] | 309 | 0.037
O=C1NCCn2c1cc1cc(F)cc(-c3ccncc3)c12 [Example 21, 8-Fluoro-6-pyridin-4-yl-3,4-dihydro-2H-pyrazino[1,2-a]indol-1-one] | 323.5 | 0.036
O=C1NCCn2c1cc1cc(F)cc(-c3ccc(F)c(F)c3)c12 [Example 22, 6-(3,4-Difluoro-phenyl)-8-fluoro-3,4-dihydro-2H-pyrazino[1,2-a]indol-1-one] | 289.5 | 0.037
O=C1NCCn2c1cc1cc(F)cc(-c3ccc(Cl)cc3)c12 [Example 23, 6-(4-Chloro-phenyl)-8-fluoro-3,4-dihydro-2H-pyrazino[1,2-a]indol-1-one] | 322 | 0.019
Cc1ccc(-c2cc(F)cc3cc4n(c23)CCNC4=O)cc1 [Example 24, 8-Fluoro-6-p-tolyl-3,4-dihydro-2H-pyrazino[1,2-a]indol-1-one] | 271.5 | 0.017
O=C1NCCn2c1cc1cc(F)cc(-c3ccc(C(F)(F)F)cc3)c12 [Example 25, 8-Fluoro-6-(4-trifluoromethyl-phenyl)-3,4-dihydro-2H-pyrazino[1,2-a]indol-1-one] | 346 | 0.023
O=C1NCCCn2c1cc1cc(F)cc(-c3ccc(F)c(F)c3)c12 [Example 28, 7-(3,4-Difluoro-phenyl)-9-fluoro-2,3,4,5-tetrahydro-[1,4]diazepino[1,2-a]indol-1-one] | 230.5 | 0.1
O=C1NCCCn2c1cc1cc(F)cc(-c3ccc(Cl)cc3)c12 [Example 29, 7-(4-Chloro-phenyl)-9-fluoro-2,3,4,5-tetrahydro-[1,4]diazepino[1,2-a]indol-1-one] | 263.5 | 0.03
Cc1ccc(-c2cc(F)cc3cc4n(c23)CCCNC4=O)cc1 [Example 30, 9-Fluoro-7-p-tolyl-2,3,4,5-tetrahydro-[1,4]diazepino[1,2-a]indol-1-one] | 258.5 | 0.036
O=C1NCCCn2c1cc1cc(F)cc(-c3ccc(C(F)(F)F)cc3)c12 [Example 31, 9-Fluoro-7-(4-trifluoromethyl-phenyl)-2,3,4,5-tetrahydro-[1,4]diazepino[1,2-a]indol-1-one] | 257 | 0.056
O=C1NCCn2c1cc1c(F)c(F)cc(-c3ccc(F)cc3)c12 [Example 32, 8,9-Difluoro-6-(4-fluoro-phenyl)-3,4-dihydro-2H-pyrazino[1,2-a]indol-1-one] | 283.5 | 2.6
COc1ccc(-c2cc(F)c(F)c3cc4n(c23)CCNC4=O)cc1 [Example 33, 8,9-Difluoro-6-(4-methoxy-phenyl)-3,4-dihydro-2H-pyrazino[1,2-a]indol-1-one] | 227.5 | 0.22

Continued, in another order:

melting point [°C] | Structure (SMILES) | EC (150% of control) [1] [µM]
327 | O=C1NCCn2c1cc1c(F)c(F)cc(-c3ccc(Cl)cc3)c12 [Example 34, 6-(4-Chloro-phenyl)-8,9-difluoro-3,4-dihydro-2H-pyrazino[1,2-a]indol-1-one] | 1.4
317.5 | O=C1NCCn2c1cc1c(F)c(F)cc(-c3ccc(F)c(F)c3)c12 [Example 35, 6-(3,4-Difluoro-phenyl)-8,9-difluoro-3,4-dihydro-2H-pyrazino[1,2-a]indol-1-one] | 2.6
287 | O=C1NCCCn2c1cc1c(F)c(F)cc(-c3ccc(F)cc3)c12 [Example 36, 9,10-Difluoro-7-(4-fluoro-phenyl)-2,3,4,5-tetrahydro-[1,4]diazepino[1,2-a]indol-1-one] | 3.9
207.5 | COc1ccc(-c2cc(F)c(F)c3cc4n(c23)CCCNC4=O)cc1 [Example 37, 9,10-Difluoro-7-(4-methoxy-phenyl)-2,3,4,5-tetrahydro-[1,4]diazepino[1,2-a]indol-1-one] | 0.45
286.5 | O=C1NCCn2c1cc1cc(F)c(F)c(-c3ccc(F)cc3)c12 [Example 38, 7,8-Difluoro-6-(4-fluoro-phenyl)-3,4-dihydro-2H-pyrazino[1,2-a]indol-1-one] | 0.03
274.5 | COc1ccc(-c2c(F)c(F)cc3cc4n(c23)CCNC4=O)cc1 [Example 39, 7,8-Difluoro-6-(4-methoxy-phenyl)-3,4-dihydro-2H-pyrazino[1,2-a]indol-1-one] | 0.005
223.5 | O=C1NCCCn2c1cc1cc(F)c(F)c(-c3ccc(F)cc3)c12 [Example 40, 8,9-Difluoro-7-(4-fluoro-phenyl)-2,3,4,5-tetrahydro-[1,4]diazepino[1,2-a]indol-1-one] | 0.024
182.5 | COc1ccc(-c2c(F)c(F)cc3cc4n(c23)CCCNC4=O)cc1 [Example 41, 8,9-Difluoro-7-(4-methoxy-phenyl)-2,3,4,5-tetrahydro-[1,4]diazepino[1,2-a]indol-1-one] | 0.006
225 | O=C1NCCCn2c1cc1cc(F)c(F)c(-c3ccc(F)c(F)c3)c12 [Example 42, 7-(3,4-Difluoro-phenyl)-8,9-difluoro-2,3,4,5-tetrahydro-[1,4]diazepino[1,2-a]indol-1-one] | 0.21
232.5 | O=C1NCCCn2c1cc1cc(F)c(F)c(-c3ccc(Cl)cc3)c12 [Example 43, 7-(4-Chloro-phenyl)-8,9-difluoro-2,3,4,5-tetrahydro-[1,4]diazepino[1,2-a]indol-1-one] | 0.08
305 | O=C1NCCn2c1cc1cc(F)c(F)c(-c3ccc(F)c(F)c3)c12 [Example 44, 6-(3,4-Difluoro-phenyl)-7,8-difluoro-3,4-dihydro-2H-pyrazino[1,2-a]indol-1-one] | 0.3
332.5 | O=C1NCCn2c1cc1cc(F)c(F)c(-c3ccc(Cl)cc3)c12 [Example 45, 6-(4-Chloro-phenyl)-7,8-difluoro-3,4-dihydro-2H-pyrazino[1,2-a]indol-1-one] | 0.076
230.5 | O=C1NCCCn2c1cc1cc(Cl)cc(-c3ccc(F)c(F)c3)c12 [Example 46, 9-Chloro-7-(3,4-difluoro-phenyl)-2,3,4,5-tetrahydro-[1,4]diazepino[1,2-a]indol-1-one] | 0.69
227 | Cc1ccc(-c2cc(Cl)cc3cc4n(c23)CCCNC4=O)cc1 [Example 47, 9-Chloro-7-p-tolyl-2,3,4,5-tetrahydro-[1,4]diazepino[1,2-a]indol-1-one] | 0.6
260 | O=C1NCCCn2c1cc1cc(Cl)cc(-c3ccc(F)cc3)c12 [Example 48, 9-Chloro-7-(4-fluoro-phenyl)-2,3,4,5-tetrahydro-[1,4]diazepino[1,2-a]indol-1-one] | 0.43
320 | O=C1NCCn2c1cc1cc(Cl)cc(-c3ccc(Cl)cc3)c12 [Example 49, 8-Chloro-6-(4-chloro-phenyl)-3,4-dihydro-2H-pyrazino[1,2-a]indol-1-one] | 0.045
277.5 | O=C1NCCn2c1cc1cc(Cl)cc(-c3ccc(F)c(F)c3)c12 [Example 50, 8-Chloro-6-(3,4-difluoro-phenyl)-3,4-dihydro-2H-pyrazino[1,2-a]indol-1-one] | 0.13
298 | O=C1NCCn2c1cc1cc(Cl)cc(-c3ccc(F)cc3)c12 [Example 51, 8-Chloro-6-(4-fluoro-phenyl)-3,4-dihydro-2H-pyrazino[1,2-a]indol-1-one] | 0.098
282.5 | COc1ccc(-c2cc(Cl)cc3cc4n(c23)CCNC4=O)cc1 [Example 52, 8-Chloro-6-(4-methoxy-phenyl)-3,4-dihydro-2H-pyrazino[1,2-a]indol-1-one] | 0.022
